Consider 8 compounds from PMC4923258, “A Recombinant Human Pluripotent Stem Cell Line Stably Expressing Halide-Sensitive YFP-I152L for GABAAR and GlyR-Targeted High-Throughput Drug Screening and Toxicity Testing” (Frontiers in Molecular Neuroscience, 2016).

Several values for one entry are separate records, joined by “and”; a condition that tells them apart may be missing. Identical values can stand only once. Like-named read-outs stand apart in the source and are kept apart here.

Test [1] has as its system GlyR. The format is cell-based, human. Here is the method:
(§1) To this end, human pluripotent NT2-YFP-I152L cells were differentiated into neuronal NT2-N-YFP-I152L cells as described in the Methods section and were seeded at a density of 2 × 10^4 cells in each well of a 96-well plate. 48 h later, the culture medium was completely removed and was replaced by 50 μl NaCl control solution.
(§2) Approximately 1 h prior to commencement of experiments culture media in 96-well plates was removed manually and was replaced by 50 μl standard control solution, which contained (in mM) NaCl 140, KCl 5, CaCl2 2, MgCl2 1, HEPES 10, and glucose 10 (pH 7.4, NaOH) upon washing the cells once in 50 μl standard control solution. […] All drugs were diluted from stocks at the day of the experiment and experiments were conducted at room temperature.
(§3) The experimental protocol involved imaging each well for 30 s at 2 Hz acquisition rate capturing the initial fluorescence intensity in the control situation as well as the test situation upon receptor activation, respectively. Liquid handling was performed manually.
(§4) Cells depicted in fluorescence micrographs were selected manually based on strongest quench for low and intermediate concentrations and based on cell morphology in experiments where high drug concentrations were applied. Registered images of fluorescent cells were segmented and quantitatively analyzed using NIS-Elements software (Nikon, Japan). The fluorescence signal of identified cells was measured in images acquired before and after the addition of agonist solution as the mean of all pixel values within the area of a cell. “% fluorescence quench” in chloride imaging experiments is defined as %fluorescence quench=(Finit−Ffinal)∗100/Finit where Finit and Ffinal are the initial and final values of fluorescence, respectively.
(§5) Individual concentration responses were constructed by pooling results from ten cells in one well exposed to agonist solution. Concentration-response relationships were fitted with the following equation: F= Fmax+Fmin− Fmax/1+([Agonist]/EC50)^nH where F is the fluorescence corresponding to a particular agonist concentration, [Agonist]; Fmin and Fmax are the minimal and maximal fluorescence values, respectively; EC50 is the concentration that elicits half-maximal activation; and nH is the Hill coefficient. Curve fits were performed using a least squares fitting routine (Origin 7G, OriginLab Corporation). All averaged results are expressed as mean ± SD.

The test system of test [2] is GABAAR. The test is classed as cell-based, human. The conditions noted are these: 1 μM GABA. The procedure:
as §1, §2, §3, §4, §5

Test [3] has as its system GABAAR. The experiment in a line: Proportion of cells with at least 20% fluorescence quench at saturating GABA. The format is cell-based, human. The conditions noted are these: for Percentage of non-treated NT2-YFP-I152L stem cells responding with at least 20% fluorescence quench: 1 mM saturating GABA; for GABAAR-positive cells as percentage of the overall population / Percentage of cells per image with fluorescence quench of at least 20%: saturating GABA. The text has this:
(§6) The applicability of the established recombinant in vitro model for high-throughput GABAAR and GlyR-targeted screening in the context of lead identification and NT/DNT testing strongly depends on the proportion of GABAAR and GlyR positive NT2-N cells in the whole cell population. A very small percentage of GABAAR and GlyR expressing NT2-N cells requires a large number of individual experiments including technical and biological replicates to be conducted in order to obtain statistically sound results, potentially compromising the usability of the established cell line for the envisioned application. […] The threshold of 20% fluorescence quench was chosen because, from our experience, any measured cellular fluorescence change within a range of −20 to 20% reflects biological noise typical to the employed assay. As a starting point toward analysing the proportion of GABAAR and GlyR-positive cells we segmented the images of a total of 24 individual experiments from two different differentiation batches (GABAAR, batch #1: n = 7, batch #2: n = 6; GlyR, batch #1: n = 6, batch #2: n = 5) using a modified version of DetecTIFF^© software (Gilbert et al., [2009c]) employing two individual sets of parameters for the identification of small neuronal NT2-N-YFP-I152L and larger non-neuronal NT2-YFP-I152L cells. […] Exemplary segmentation masks created from the image shown in Figure 6A for quantitative analysis of fluorescence intensity and calculation of “% fluorescence quench” in small neuronal NT2-N-YFP-I152L cells and large non-neuronal cells are depicted in Figures 6B,C.
(§7) Images of fluorescent cells were segmented and quantitatively analyzed using a modified version of DetecTIFF® software (Gilbert et al., [2009c]). In brief, images were segmented using an iterative size and intensity-based thresholding algorithm and the fluorescence signal of identified cells was calculated as the mean of all pixel values within the area of a cell.

The subject of test [4] is GABAAR. The test is classed as cell-based, human. To be noted: GABA concentration-response, mean ± SD, n = 10. The procedure:
(§8) To assess whether the generated recombinant stem cell line is suitable to chloride imaging and functional profiling of GABAARs and GlyRs, NT2-YFP-I152L cells were differentiated into neuronal NT2-N- YFP-I152L cells as described in the Methods section and were seeded at defined density of 2 × 10^4 cells in each well of a 96-well plate. Two days later and approximately 1 h prior to fluorescence imaging, the culture medium was completely removed and was replaced by 50 μl NaCl control solution. The standard NaCl control solution contained (in mM): NaCl 140, KCl 5, CaCl2 2, MgCl2 1, HEPES 10, glucose 10, pH 7.4 using NaOH. The 96-well plate was placed onto the motorized stage of a high-content imaging system and cells were imaged in control solution to record cellular YFP fluorescence in unquenched state. Because YFP-I152L is almost insensitive to chloride, its fluorescence intensity is highest in NaCl solution allowing for optimal focussing into the optical layer of cells. […] Fluorescence quench was calculated at single cell level by quantitative analysis as described in the Methods section. […]
(§9) The experimental protocol involved imaging each well for 30 s at 2 Hz acquisition rate capturing the initial fluorescence intensity in the control situation as well as the test situation upon receptor activation, respectively. […]

The subject of test [5] is GlyR. The conditions noted are these: for Percentage of non-treated NT2-YFP-I152L stem cells responding with at least 20% fluorescence quench: 1 mM saturating glycine.
From the text: as §6, §7

In test [6] the test system is GlyR. The conditions noted are these: mean ± SD, n = 10; for nH (Hill coefficient): glycine concentration-response. Here is the method:
as §8, §9
Cells depicted in fluorescence micrographs were selected manually based on strongest quench for low and intermediate concentrations and based on cell morphology in experiments where high drug concentrations were applied. Registered images of fluorescent cells were segmented and quantitatively analyzed using NIS-Elements software (Nikon, Japan). The fluorescence signal of identified cells was measured in images acquired before and after the addition of agonist solution as the mean of all pixel values within the area of a cell. “% fluorescence quench” in chloride imaging experiments is defined as %fluorescence quench=(Finit−Ffinal)∗100/Finit where Finit and Ffinal are the initial and final values of fluorescence, respectively. […]

In another test the test system is GABAARs. Details: method as in Kumamoto and Murata, 1995. The conditions noted are these: ref Kumamoto and Murata, 1995; cited from earlier work.
In a further test the test system is GlyRs. Details: method as in Harvey et al., 1999. The conditions noted are these: ref Harvey et al., 1999, cited from earlier work.
The mark [7] stands for this setting: read-out: IC50 (Glycine), 3 μM glycine, n = 10.
[8] abbreviates: 3 μM glycine, n = 10, read-out: IC50 (Glycine).

As usually defined, the IC50 is the point on the concentration scale where inhibition reaches its midpoint. As to `CN1CCc2cc3c(cc2[C@H]1[C@@H]1OC(=O)c2c1ccc1c2OCO1)OCO3` [Bicuculline, bicuculline], the “Sensitivity of glycine-induced I- influx compared to GABA-dependent anion influx (lower)” value in the test with GlyR [1] (ratio of IC50 vs glycine and IC50 vs GABA) is given as “about 10 fold”. For the same compound, the IC50 in the test with GlyR [1] (setting [7]) came to 13.4 µM; in the test with GABAAR [2] (read-out: IC50 (GABA), n = 10), 1.1 µM.
Turning to `N#Cc1nn(-c2c(Cl)cc(C(F)(F)F)cc2Cl)c(N)c1[S+]([O-])C(F)(F)F` (stereo not drawn) [Fipronil, fipronil], the IC50 with GlyR [1] (setting [8]) is 1.5 µM; with GABAAR [2] (read-out: IC50 (GABA), n = 10), 10.8 µM.
Turning to `NCCCC(=O)O` [GABA, γ-aminobutyric acid], the “Percentage of non-treated NT2-YFP-I152L stem cells responding with at least 20% fluorescence quench” value in the test on GABAAR [3] (replicate #1) is listed as 0.62%; in the test on GABAAR [3] (replicate #2) it was 0.37%. The “GABAAR-positive cells as percentage of the overall population” value in the test on GABAAR [3] (batch #1) is listed as 17 ± 8%; in the test on GABAAR [3] (batch #2) it was 21 ± 9%. Also, the “Percentage of cells per image with fluorescence quench of at least 20%” value turned out to be 3 ± 1% in the test with GABAAR [3] (large non-neuronal cells, batch #1, n = 7); 6 ± 2% in the test on GABAAR [3] (large non-neuronal cells, batch #2, n = 6); 28 ± 13% with GABAAR [3] (small cells (NT2-N-YFP-I152L), batch #1, n = 7); 32 ± 12% in the test with GABAAR [3] (small cells (NT2-N-YFP-I152L), batch #2, n = 6). For the same compound, the “nH (Hill coefficient)” value in the test with GABAAR [4] is 1.8 ± 0.4 and 1.8.
For the compound `NCC(=O)O` [Glycine, glycine], the “Percentage of cells per image with fluorescence quench of at least 20%” value in the test with GlyR [5] was 36 ± 14% and 35 ± 7%; with GlyR [5] (saturating glycine, large non-neuronal cells, batch #1, n = 6), 2 ± 1%; in the test on GlyR [5] (saturating glycine, large non-neuronal cells, batch #2, n = 5), 4 ± 2%. For the same compound, the “Percentage of non-treated NT2-YFP-I152L stem cells responding with at least 20% fluorescence quench” value in the test with GlyR [5] (replicate #1) is given as 0.68%; in the test on GlyR [5] (replicate #2), 0.92%. In addition, the “GlyR-positive cells as percentage of the overall population” value with GlyR [5] (saturating glycine, batch #1) is on record as 20 ± 9%; in the test with GlyR [5] (saturating glycine, batch #2) it was 19 ± 4%. Also, the “nH (Hill coefficient)” value with GlyR [6] was found to be 1.5; in the test on GlyR [6] (listed as glycine) it was 1.5 ± 0.2. Further, the EC50 in the test with GlyR [6] (read-out: EC50 (half-maximal activation concentration), glycine 0.1-1000 μM in NaI solution, quench 30 s after activation) was found to be 4.3 µM.
Consider `Cl[C@H]1[C@H](Cl)[C@@H](Cl)[C@@H](Cl)[C@H](Cl)[C@H]1Cl` [Lindane, lindane], for which the 50% inhibitory concentration (IC50) with GlyR [1] (setting [8]) was 0.0781 µM. The “Inhibition of GABA-induced anion influx (in words)” value in the test with GABAAR [2] is “no dose-dependent inhibitory activity”.
Take `O=C1C[C@@H]2OCC=C3CN4CC[C@]56c7ccccc7N1[C@H]5[C@H]2[C@H]3C[C@H]46` [Strychnine, strychnine]: the IC50 in the test with GlyR [1] (setting [7]) is 0.0172 µM. Further, the “Inhibition of GABA-induced anion influx (in words)” value in the test with GABAAR [2] is given as “specifically inhibited glycine but not GABA-induced anion-influx”.
`[Cl-].[Cl-].[Zn+2]` [Zinc, zinc chloride]: the “Concentrations inhibiting GABAARs” value in the test with GABAARs was over 10 µM. The “Concentrations at which inhibition of glycine-induced anion influx was observed” value in the test on GlyR [1] (3 μM glycine) was over 100 µM. The IC50 in the test on GlyR [1] (3 μM glycine, zinc 10 nM-1 mM, could not be calculated, presumed, read-out: IC50 (glycine-induced anion influx)) is over 1000 µM; in the test with GABAAR [2] (zinc 10 nM-1 mM, could not be calculated, presumed, read-out: IC50 (GABA-induced anion influx)), over 1000 µM. The “Increase of glycine-induced fluorescence quench” value with GlyR [1] (in presence of 1 and 10 μM zinc, not significant) is given as “about 10%”. In addition, in the test on GABAAR [2], the “Concentrations at which inhibition of GABA-induced anion influx was observed” value was over 100 µM. Also, the “Concentrations inhibiting glycine-activated currents” value in the test on GlyRs (high concentrations) is over 100 µM. Moreover, in the test with GlyRs (low concentrations), the “Concentrations potentiating glycine-activated currents” value was under 10 µM.
With picrotoxin, the IC50 came to 1.1 µM in the test on GlyR [1] (setting [8]) and 5.8 µM in the test with GABAAR [2] (read-out: IC50 (GABA), n = 10). Also, in the test on GlyR [1] (ratio of IC50 vs GABA and IC50 vs glycine), the “Sensitivity of GlyR compared to GABAARs (higher)” value is recorded as “approximately 5 fold”.
